Source: patent US9963445B2, “Chemical compounds” (SYNGENTA PARTICIPATIONS AG, priority 2013, dated 2018)

Assays:
Type in all cases: in vivo
Abutilon theophrasti [1] = test: Pre-emergence herbicidal activity, glasshouse pot test; details: pre-emergence spray, rate 1000 g/ha, evaluated after 13 days, scale 0-5
Method in brief: (§1)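 Sown pots sprayed pre-emergence (day 1), acetone/water + 0.5% Tween 20 vehicle. Damage rated 0–5 at 13 days.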

Amaranthus retroflexus [2] = test: as above; details: pre-emergence spray, rate 1000 g/ha, evaluated after 13 days, scale 0-5
Method in brief: as §1

Setaria faberi [3] = test: as above; details: pre-emergence spray, rate 1000 g/ha, evaluated after 13 days, scale 0-5
Method in brief: as §1

zea mays [4] = test: as above; details: pre-emergence spray, rate 1000 g/ha, evaluated after 13 days, scale 0-5
Method in brief: as §1

Echinochloa crus-galli [5] = test: as above; details: pre-emergence spray, rate 1000 g/ha, evaluated after 13 days, scale 0-5
Method in brief: as §1

Alopecurus myosuroides [6] = test: as above; details: pre-emergence spray, rate 1000 g/ha, evaluated after 13 days, scale 0-5
Method in brief: as §1

Abutilon theophrasti [7] = test: Post-emergence herbicidal activity, glasshouse pot test; parameters: key: 0 = no damage to plant, 5 = total damage to plant; details: Application post-emergence, rate 1000 g/ha, evaluated after 13 days
Method in brief: (§2)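 Pot-grown seedlings, sown in standard soil, were sprayed 8 days after sowing and kept in a controlled glasshouse (24/16 °C, 14 h photoperiod, 65% humidity). Injury was assessed visually 13 days later on a scale where 5 means total damage.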

Amaranthus retroflexus [8] = test: as above; parameters: key: 0 = no damage to plant, 5 = total damage to plant; details: Application post-emergence, rate 1000 g/ha, evaluated after 13 days
Method in brief: as §2

Setaria faberi [9] = test: as above; parameters: key: 0 = no damage to plant, 5 = total damage to plant; details: Application post-emergence, rate 1000 g/ha, evaluated after 13 days
Method in brief: as §2

zea mays [10] = test: as above; parameters: key: 0 = no damage to plant, 5 = total damage to plant; details: Application post-emergence, rate 1000 g/ha, evaluated after 13 days
Method in brief: as §2

Echinochloa crus-galli [11] = test: as above; parameters: key: 0 = no damage to plant, 5 = total damage to plant; details: Application post-emergence, rate 1000 g/ha, evaluated after 13 days
Method in brief: as §2

Alopecurus myosuroides [12] = test: as above; parameters: key: 0 = no damage to plant, 5 = total damage to plant; details: Application post-emergence, rate 1000 g/ha, evaluated after 13 days
Method in brief: as §2

| Structure (SMILES) | ABUTH damage score, application pre-emergence (Abutilon theophrasti [1]) | AMARE damage score, application pre-emergence (Amaranthus retroflexus [2]) | SETFA damage score, application pre-emergence (Setaria faberi [3]) | ZEAMX damage score, application pre-emergence (zea mays [4]) | ECHCG damage score, application pre-emergence (Echinochloa crus-galli [5]) | ALOMY damage score, application pre-emergence (Alopecurus myosuroides [6]) | ABUTH herbicidal damage score (Abutilon theophrasti [7]) | AMARE herbicidal damage score (Amaranthus retroflexus [8]) | SETFA herbicidal damage score (Setaria faberi [9]) | ZEAMX herbicidal damage score (zea mays [10]) | ECHCG herbicidal damage score (Echinochloa crus-galli [11]) | ALOMY herbicidal damage score (Alopecurus myosuroides [12]) |
| --- | --- | --- | --- | --- | --- | --- | --- | --- | --- | --- | --- | --- |
| COC1=C(OC)C(O)N(c2cc(C)c(OC)nn2)C1=O (stereo not drawn) [BK1] | 4 | 5 | 4 | 2 | 4 | 4 | 5 | 5 | 5 | 3 | 5 | 4 |
| CC1=C(Cl)C(=O)N(c2cc(OC(C)C)ncn2)C1O (stereo not drawn) [CF5] | 4 | 4 | 5 | 2 | 3 | 3 | 5 | 4 | 5 | 2 | 5 | 4 |
| CCO/C=C\c1cnc(N2C(=O)C(Cl)=C(C)C2O)cc1C(F)(F)F (stereo not drawn) [AF1] | 1 | 4 | 2 | 1 | 2 | 1 | 5 | 5 | 5 | 2 | 5 | 5 |
| COC1=C(C)C(O)N(c2cc(C(C)(F)F)c(C#N)nn2)C1=O (stereo not drawn) [BI23] | 4 | 5 | 2 | 1 | 4 | 4 | 4 | 3 | 4 | 1 | 4 | 4 |
| CCOC1=C(C)C(O)N(c2cc(C(F)(F)F)ccn2)C1=O (stereo not drawn) [AI5, 4-ethoxy-2-hydroxy-3-methyl-1-[4-(trifluoromethyl)-2-pyridyl]-2H-pyrrol-5-one] | 4 | 5 | 5 | 3 | 4 | 4 | 5 | 5 | 4 | 3 | 5 | 4 |
| CC1=C(Cl)C(=O)N(c2cc(C)c([N+](=O)[O-])cn2)C1O (stereo not drawn) [AF48] | 0 | 0 | 0 | 0 | 1 | 1 | 0 | 5 | 3 | 0 | 3 | 2 |
| COC1=C(C)C(O)N(c2cc(C(F)(F)F)c(C(=O)N(C)C)cn2)C1=O (stereo not drawn) [AI11] | 5 | 5 | 4 | 4 | 4 | 4 | 5 | 5 | 5 | 4 | 5 | 5 |
| COC1=C(C)C(O)N(c2cc(C)c(Br)cn2)C1=O (stereo not drawn) [AI32] | 0 | 5 | 2 | 1 | 4 | 2 | 5 | 5 | 5 | 2 | 5 | 5 |
| CC1=C(Cl)C(=O)N(c2cc(C3(C#N)CC3)ncn2)C1O (stereo not drawn) [CF17] | 2 | 5 | 5 | 2 | 3 | 3 | 5 | 5 | 5 | 3 | 5 | 4 |
| CCOC(=O)c1cnc(N2C(=O)C(OC)=C(C)C2O)cc1Cl (stereo not drawn) [AI19] | 0 | 2 | 1 | 0 | 2 | 1 | 4 | 5 | 5 | 1 | 3 | 1 |
